Patent US7199132B2, “Tropane analogs and methods for inhibition of monoamine transport” (Organix, Inc., priority 2001, dated 2007)
Read-outs that look alike come from different tables or passages of the source.

Key:
[1] = target: T1, dopamine transporter (Macaca fascicularis, UniProt Q9GJT6); experiment: Dopamine transporter assay: inhibition of {3H}WIN 35,428 binding in caudate-putamen membranes; design: species or system rhesus or cynomolgus monkey; settings: for SERT/DAT: selectivity ratio IC50 SERT / IC50 DAT; for IC50: inhibition of {3H}WIN 35,428 binding, mean of 2 or more independent experiments in triplicate
T1 construct: The caudate-putamen was dissected from coronal slices and yielded 1.4±0.4 g tissue; Membranes were prepared as described previously; from tissue; host or cells: caudate-putamen membranes of cynomolgus or rhesus monkey brain

[2] = target: T2, serotonin transporter (Macaca mulatta, UniProt Q9MYX0); experiment: Serotonin transporter assay: inhibition of {3H}citalopram binding in caudate-putamen membranes; design: species or system rhesus or cynomolgus monkey; settings: IC50 (nM) SERT, monkey caudate-putamen, mean of 2 or more independent experiments in triplicate
T2 construct: The serotonin transporter was assayed in caudate-putamen membranes using conditions similar to those for the dopamine transporter; from tissue; host or cells: caudate-putamen membranes of cynomolgus or rhesus monkey brain

[3] = IC50 (nM) DAT, monkey caudate-putamen

T2 sequence (Q9MYX0 whole entry): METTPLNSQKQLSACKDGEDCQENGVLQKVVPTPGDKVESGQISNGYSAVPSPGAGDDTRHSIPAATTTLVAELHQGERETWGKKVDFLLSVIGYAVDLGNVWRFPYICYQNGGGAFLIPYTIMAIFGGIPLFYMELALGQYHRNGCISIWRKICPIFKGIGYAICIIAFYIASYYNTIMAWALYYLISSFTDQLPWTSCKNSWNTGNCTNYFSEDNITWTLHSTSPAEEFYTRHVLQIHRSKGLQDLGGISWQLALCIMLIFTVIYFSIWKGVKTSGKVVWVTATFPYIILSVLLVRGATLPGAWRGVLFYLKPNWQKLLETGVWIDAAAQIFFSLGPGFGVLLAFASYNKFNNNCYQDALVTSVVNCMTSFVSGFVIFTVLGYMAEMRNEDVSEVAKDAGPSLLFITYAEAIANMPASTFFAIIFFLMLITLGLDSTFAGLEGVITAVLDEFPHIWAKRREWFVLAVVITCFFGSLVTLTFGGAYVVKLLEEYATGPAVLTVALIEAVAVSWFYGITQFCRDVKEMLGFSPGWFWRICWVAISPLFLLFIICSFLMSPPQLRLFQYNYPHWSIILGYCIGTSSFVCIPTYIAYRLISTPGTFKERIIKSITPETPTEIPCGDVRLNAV
T1 sequence (Q9GJT6 whole entry): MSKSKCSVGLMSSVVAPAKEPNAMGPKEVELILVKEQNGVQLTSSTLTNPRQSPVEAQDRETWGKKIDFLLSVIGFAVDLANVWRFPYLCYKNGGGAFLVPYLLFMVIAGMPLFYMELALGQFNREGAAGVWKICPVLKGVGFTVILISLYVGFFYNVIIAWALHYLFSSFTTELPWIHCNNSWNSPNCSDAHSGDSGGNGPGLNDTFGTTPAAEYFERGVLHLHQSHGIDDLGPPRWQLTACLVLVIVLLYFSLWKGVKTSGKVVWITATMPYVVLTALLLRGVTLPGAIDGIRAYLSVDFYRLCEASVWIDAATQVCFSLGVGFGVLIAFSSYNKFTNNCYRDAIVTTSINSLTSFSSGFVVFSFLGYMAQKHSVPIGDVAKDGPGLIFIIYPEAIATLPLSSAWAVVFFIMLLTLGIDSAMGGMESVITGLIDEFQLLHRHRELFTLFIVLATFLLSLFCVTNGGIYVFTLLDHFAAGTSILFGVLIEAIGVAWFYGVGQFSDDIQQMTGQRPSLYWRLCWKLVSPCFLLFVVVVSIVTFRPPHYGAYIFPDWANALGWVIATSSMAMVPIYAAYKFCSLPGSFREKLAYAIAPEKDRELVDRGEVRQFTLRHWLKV

SMILES | SERT/DAT [1] | IC50 [2] | melting point | IC50 [1, 3] | also measured
COC(=O)[C@@H]1[C@H]2C[C@H](O)[C@@H](C[C@H]1c1ccc3ccccc3c1)N2C (relative stereo) [Compound 17b, 2β-Carbomethoxy-3α-(2-naphthyl)-6β-hydroxy-8-methyl-8-azabicyclo{3.2.1}octane] | 6 | 180 nM | 93.5 to 94.5 °C |  | 
COC(=O)C1C(c2ccc(F)cc2)CC2C(O)CC1N2C (stereo not drawn) [Compound 14c, 2β-Carbomethoxy-3β-(4-fluorophenyl)-6β-hydroxy-8-methyl-8-azabicyclo{3.2.1}octane] | >42 | > 20000 nM | 162 to 164 °C |  | 
COC(=O)C1=C(c2ccc3ccccc3c2)CC2CCC1N2C (stereo not shown) [Compound 6b, reference compound] | 37 | 109 nM |  | 2.94 nM | 
COC(=O)[C@@H]1[C@H]2C[C@@H](O)[C@@H](C[C@H]1c1ccc(Cl)c(Cl)c1)N2C (relative stereo) [Compound 30a, 2β-Carbomethoxy-3α-(3,4-dichlorophenyl)-6α-hydroxy-8-methyl-8-azabicyclo{3.2.1}octane] |  | 10700 nM | 161.2 to 162.2 °C |  | 
COC(=O)C1C(c2ccc(Cl)c(Cl)c2)CC2C[C@@H](O)C1N2C (stereo partly shown) [Compound 33] |  | 533 nM |  |  | potency at the DAT relative to cocaine ([1]; compared with cocaine): almost twice as potent as cocaine
COC(=O)[C@@H]1[C@H]2[C@H](O)C[C@@H](C[C@H]1c1ccc3ccccc3c1)N2C (relative stereo) [Compound 18b, 2β-Carbomethoxy-3α-(2-naphthyl)-7β-hydroxy-8-methyl-8-azabicyclo{3.2.1}octane] | 34 | 94 nM | 140.1 to 141.9 °C |  | 
COC(=O)C1C(c2ccc(Cl)c(Cl)c2)CC2CC(O)C1N2C (single isomer, unassigned) [(1S)-15a] | 50 | 15 nM |  | 0.3 to 7.4 nM | fold more selective (DAT vs SERT) than 13a ([1]; compared with 13a): 25 fold
COC(=O)[C@H]1[C@@H](c2ccccc2)C[C@@H]2[C@@H](O)C[C@H]1N2C (relative stereo) [Compound 14d, 2β-Carbomethoxy-3β-phenyl-6β-hydroxy-8-methyl-8-azabicyclo{3.2.1}octane] | 14 | 88000 nM | 150 to 152 °C |  | 
COC(=O)C1=C(c2ccc(F)cc2)C[C@@H]2C[C@@H](O)[C@H]1N2C (racemic) [Compound 8c, 2-Carbomethoxy-3-(4-fluorophenyl)-7β-hydroxy-8-methyl-8-azabicyclo{3.2.1}oct-2-ene] | 1 | > 10000 nM |  |  | 
COC(=O)C1=C(c2ccc(Cl)c(Cl)c2)C[C@H]2C[C@H](O)[C@@H]1N2C [(1R)-8a, (1R)-2-Carbomethoxy-3-(3,4-dichlorophenyl)-7β-hydroxy-8-methyl-8-azabicyclo{3.2.1}oct-2-ene] |  | 1590 nM |  | 265 to 2690 nM | 
COC(=O)C1=C(c2ccc(Cl)c(Cl)c2)C[C@@H]2C[C@@H](O)[C@H]1N2C (racemic) [Compound 8a, 2-Carbomethoxy-3-(3,4-dichlorophenyl)-7β-hydroxy-8-methyl-8-azabicyclo{3.2.1}oct-2-ene] |  | > 6000 nM | 130.4 to 132.4 °C |  | 
COC(=O)C1=C(c2ccccc2)C[C@@H]2CC[C@H]1N2C (relative stereo) [Compound 6d, reference compound] | 11 | 28600 nM |  |  | 
COC(=O)[C@H]1[C@@H](c2ccc(Cl)c(Cl)c2)C[C@@H]2CC[C@H]1N2C [Compound 13a, (1R)-3β-(3,4-di-chlorophenyl)-tropane-2β-carboxylic acid methyl ester, reference compound] | 2 | 2.47 nM |  |  | 
COC(=O)[C@H]1[C@@H](c2ccccc2)C[C@@H]2CC[C@H]1N2C (relative stereo) [Compound 13d, reference compound] |  |  |  | 65 nM | 
COC(=O)[C@@H]1[C@H]2CC[C@@H](C[C@H]1c1ccc(Cl)c(Cl)c1)N2C [Compound 16a, reference compound] | 73 |  |  |  | IC50 ([1]; monkey caudate-putamen, read-out: IC50 (nM) DAT): 0.38 nM
COC(=O)[C@@H]1[C@H]2C[C@H](O)[C@@H](C[C@H]1c1ccccc1)N2C (relative stereo) [Compound 17d, 2β-Carbomethoxy-3α-phenyl-6β-hydroxy-8-methyl-8-azabicyclo{3.2.1}octane] | >3 |  | 138 to 140 °C |  | 
COC(=O)[C@@H]1[C@H]2CC[C@@H](C[C@H]1c1ccc3ccccc3c1)N2C (relative stereo) [Compound 16b, reference compound] | 10 |  |  | 0.57 nM | 
COC(=O)C1C(c2ccc(Cl)c(Cl)c2)CC2CC(O)C1N2C (single isomer, unassigned) [Compound (1R)-18a] |  |  |  | 265 to 2690 nM | 

SMILES | SERT/DAT [1] | IC50 [2] | melting point | IC50 [1, 3] | also measured
COC(=O)[C@H]1[C@@H](c2ccc(F)cc2)C[C@@H]2CC[C@H]1N2C [Compound 13c, (1R)-3β-(4-fluorophenyl)tropane-2β-carboxylic acid methyl ester, reference compound] | 15 | 160 nM |  | 11 nM | 
COC(=O)[C@@H]1[C@H]2[C@H](O)C[C@@H](C[C@H]1c1ccc(Cl)c(Cl)c1)N2C (relative stereo) [Compound 18a, 2β-Carbomethoxy-3α-(3,4-dichlorophenyl)-7β-hydroxy-8-methyl-8-azabicyclo{3.2.1}octane] |  |  | 148.5 to 150 °C |  | 
COC(=O)[C@H]1[C@@H](c2ccc(Cl)c(Cl)c2)C[C@@H]2CC(=O)[C@H]1N2C (relative stereo) [Compound 19, 2β-Carbomethoxy-3β-(3,4-dichlorophenyl)-8-methyl-8-azabicyclo{3.2.1}oct-7-one] |  | 290 nM | 84.4 to 86.4 °C |  | 
COC(=O)[C@@H]1[C@H]2C[C@H](O)[C@@H](C[C@H]1OC(c1ccc(F)cc1)c1ccc(F)cc1)N2C (relative stereo) [Compound 32a, 2β-Carbomethoxy-3α-bis(4-fluorophenyl)methoxy-6β-hydroxy-8-methyl-8-azabicyclo{3.2.1}octane] |  | 4850 nM |  |  | 
COC(=O)C1C(c2ccc3ccccc3c2)CC2CCC1N2C (stereo not shown) [Compound 13b, reference compound] | 5 |  |  |  | 
COC(=O)[C@@H]1[C@H]2[C@H](O)C[C@@H](C[C@H]1c1ccccc1)N2C (relative stereo) [Compound 18d, 2β-Carbomethoxy-3α-phenyl-7β-hydroxy-8-methyl-8-azabicyclo{3.2.1}octane] |  |  | 165 to 167 °C |  | 
COC(=O)[C@@H]1[C@H]2CC[C@@H](C[C@H]1c1ccc(F)cc1)N2C (relative stereo) [Compound 16c, reference compound] | 63 |  |  |  | 
COC(=O)C1=C(c2ccc(F)cc2)CC2CCC1N2C (stereo not shown) [Compound 6c, reference compound] | 20 | 7990 nM |  | 408 nM | 
COC(=O)C1C(c2ccc(Cl)c(Cl)c2)CC2CC(O)C1N2C (single isomer, unassigned) [Compound (1S)-18a] |  |  |  | 0.3 to 7.4 nM | fold more selective (DAT vs SERT) than 16a ([1]; compared with 16a): 22 fold; fold more selective (DAT vs SERT) than (1S)-15a ([1]; compared with (1S)-15a): 32 fold
COC(=O)C1=C(c2ccc(Cl)c(Cl)c2)CC2CCC1N2C (stereo not shown) [Compound 6a, reference compound] | 747 | 867 nM |  | 1.16 nM | 
COC(=O)[C@@H]1[C@H]2[C@H](O)C[C@@H](C[C@H]1OC(c1ccc(F)cc1)c1ccc(F)cc1)N2C (relative stereo) [Compound 32b, 2β-Carbomethoxy-3α-bis(fluorophenyl)methoxy-7β-hydroxy-8-methyl-8-azabicyclo{3.2.1}octane] |  | 9560 nM | 150 to 152 °C |  | 
COC(=O)[C@@H]1[C@H]2C[C@H](O)[C@@H](C[C@H]1c1ccc(Cl)c(Cl)c1)N2C (relative stereo) [Compound 17a, 2β-Carbomethoxy-3α-(3,4-dichlorophenyl)-6β-hydroxy-8-methyl-8-azabicyclo{3.2.1}octane] | 238 |  | 129.1 to 131.1 °C |  | 
COC(=O)[C@@H]1[C@H]2[C@H](O)C[C@@H](C[C@@H]1c1ccccc1)N2C (racemic) [Compound 15d, 2β-Carbomethoxy-3β-phenyl-7β-hydroxy-8-methyl-8-azabicyclo{3.2.1}octane] |  | > 10000 nM | 165.8 to 167.8 °C |  | 
COC(=O)C1C(c2ccc(Cl)c(Cl)c2)CC2CC(O)C1N2C (single isomer, unassigned) [(1R)-15a] | 0.05 | 139 nM |  | 265 to 2690 nM | 
COC(=O)C1C(c2ccccc2)CC2[C@@H](O)CC1N2C (stereo partly shown) [Compound 34] |  | > 20000 nM |  |  | inhibition of {3H}WIN 35,428 binding, result in words ([1]; monkey caudate-putamen): inactive
COC(=O)[C@@H]1[C@H]2[C@@H](O)C[C@@H](C[C@H]1c1ccc(Cl)c(Cl)c1)N2C (relative stereo) [Compound 30b, 2β-Carbomethoxy-3α-(3,4-dichlorophenyl)-7α-hydroxy-8-methyl-8-azabicyclo{3.2.1}octane] |  | 991 nM | 121 to 123 °C |  | 
COC(=O)C1=C(c2ccc(Cl)c(Cl)c2)C[C@@H]2C[C@@H](O)[C@H]1N2C [(1S)-8a, (1S)-2-Carbomethoxy-3-(3,4-dichlorophenyl)-7β-hydroxy-8-methyl-8-azabicyclo{3.2.1}oct-2-ene] |  | 5370 nM |  |  | 
COC(=O)[C@@H]1[C@H]2C[C@H](O)[C@@H](C[C@H]1c1ccc(F)cc1)N2C (relative stereo) [Compound 17c, 2β-Carbomethoxy-3α-(4-fluorophenyl)-6β-hydroxy-8-methyl-8-azabicyclo{3.2.1}octane] | 8 |  | 148 to 150 °C |  | 
